“Also recorded” adds a separate entry of the source.
Key:
Musca domestica (adult) = experiment: Adult flies in spray-treated Petri dishes, surviving flies counted; type: in vivo; conditions: 10 adult flies per pre-treated dish; RB 86 6%, Bionim 0.4%, potassium oleate 5% concentration
Experimental: (§1) As RB 86™ needs an emulsifier for dissolving this emulsifier was also tested. All tests were reiterated, making a total of five times for each. Throughout the study, houseflies (Musca domestica) of a laboratory strain (772a) obtained from Statens Skadedyrslaboratorium, Lyngby, Denmark, was used. Standard medium for culturing larvae consisted of baker's yeast, mill: powder, water and wheat bran.
Test vessels were Petri dishes made of glass with a diameter of 9 cm. With the help of a spraying bottle the bottoms of the vessels were treated with each of the compositions a)-f). After transferring 10 adult flies to each of the pre-treated dishes, the dishes were covered with plastic film and the registration started. Observations were performed by counting the surviving flies at the start, after 5 minutes and subsequently every 10th minute up to a total of 60 minutes. Two further observations were made after 1.5 and 2 hours from the start, respectively.

Musca domestica (larvae) = experiment: Larvae in culture medium with the composition, surviving larvae counted; type: in vivo; conditions: six days old larvae, 24° C., observed up to 36 hours
Experimental: as §1
Six days old larvae were placed in 1.5 litre plastic vessels (Cerbo™) containing 40 g culture medium and the respective composition a)-f). The vessels were placed in a climate room (24° C., RH %=75%±10%). Observations were performed whereby the number surviving larvae were registrated after 2, 5, 12, 24 and 36 hours.

[1] = tested on: M. domestica spiracle opening bristles; experiment: Effects on flies studied in scanning electron microscope; type: in vivo, Musca domestica; conditions: adult flies; Bionim 0.4%, potassium oleate 5%, Blidol 0.02%; SEM
Source text: A scanning electron microscope (SEM) was used to microscope adult flies treated with:
whereby morphological changes could be detected. These flies were photographed and compared with normal flies.
Morphological changes could be detected on the spiracle opening on the middle part of the body. Bristles (see FIG. 12) surround this breathing hole. […] Apparently these last mentioned effects are present when using the other compositions.

fleas = experiment: Flea control on dogs; type: in vivo
Experimental: 15 dogs infested with fleas were treated with oleate. The oleate was sprayed from pump bottles. At the first treatment the dogs were sprayed with oleate in the groins, armpits and head/neck. At the second treatment, twenty-four hours later, the dogs were sprayed only in the armpits and behind the ears.

## CCCCCCCC/C=C\CCCCCCCC(=O)[O-].[K+] [Potassium oleate]
Musca domestica (adult)
  time within which all flies were killed: ≤ 5 min
Musca domestica (larvae)
  controlling effect on larvae: An effect could however be detected
[1]
  deformation of bristles around the spiracle opening: The bristles are minimally affected; also recorded: only showed minimal changes
fleas; after the first spray treatment, 15 infested dogs
  fleas found on dogs: only one or two fleas were found on some dogs
fleas; forty-eight hours later, after the second treatment
  living fleas found: no living flea was found
fleas; four days later
  living fleas found at another check: the result was the same
